Each structure is given as a SMILES string. Where “and” joins values, the source holds several entries; their conditions need not be identical. Equal values may be shown once. Entries after “also recorded” stand apart in the source; their conditions may differ. Read-outs that look alike come from different tables or passages of the source.

In assay [1] the test system is HUVEC cells. In words: Tube formation assay on Matrigel. The format is cell-based, human. The note with it: for IC50: Homo sapiens, HUVEC. As for the experimental part: Matrigel (BD Biosciences) were thawed at 4° C. overnight and each well of the prechilled 24-well plates was coated with 100 μl Matrigel and incubated at 37° C. for 45 minutes. HUVEC cells (4×10^4 cells) were added in 1 ml ECGM with various concentrations of gambogic acid. After 12-16 hours of incubation at 37° C., 5% CO2, endothelial cell tube formation was assessed using an OLYMPUS inverted microscope. Tubular structures were quantified by manual counting of low power fields (25×) and percent inhibition was expressed using untreated wells as 100% (t-test, p<0.001).

The next assay relates to mouse cornea. Nature of the assay: VEGF induced corneal angiogenesis, mouse corneal model. Format: in vivo. The note with it: 2.5 μg/ml GA, 160 ng/ml VEGF.
Assay [2] has as its system HUVEC cells. In words: Western blotting for cleaved caspase 3 and cleaved PARP (apoptosis). The format is cell-based, human. The settings on record: 100 nM GA. As for the experimental part:
HUVEC cells pretreated with or without 4 nM VEGF for 5 min were treated with or without different concentrations of GA for another 5 minutes. 200 μg total protein of the cells of each sample was subjected to immunoprecipitation using anti-c-Src, anti-FAK and anti-AKT antibodies (Santa Cruz Biotech) and further subjected to Western blotting. The pTyr-antibody (Santa Cruz Biotech) was used for detecting c-Src phosphorylation and the pFAK397 antibody (Cell Signaling) was blotted for c-Src-associated FAK phosphorylation at […]. In addition, AKT phosphorylation was examined using a pSer473-AKT antibody (Cell Signaling). Anti-cleaved caspase 3 antibody (Santa Cruz Biotech) was used for detecting cleaved caspase 3 and polyADP ribose polymerase (PARP) cleavage was detected by an anti-PARP p85 fragment (Promega) in apoptosis assays.
Several previous studies described gambogic acid (FIG. 1A) activated apoptosis in cancer cells, which partly answered the molecular mechanism of GA's anticancer characters. […] Whole cell proteins of GA treated HUVECs were analyzed by Western blotting with anticleaved caspase 3 and PARP antibodies. […] To investigate if the apoptotic activation effect of GA is different between endothelial cells and cancer cells, we measured the apoptotic populations of HUVECs and human prostate cancer cell PC3 cells treated with GA by flow cytometry FACS assays. […]
In general terms: In western blotting, separated proteins are transferred to a membrane and probed.

The subject of another assay is AKT. Nature of the assay: AKT phosphorylation (pSer473) in HUVEC cells (immunoprecipitation, Western blotting). The note with it: HUVEC cells with or without VEGF, increasing concentration of GA. Format: cell-based, human. As for the experimental part: (§1) After starvation in ECGM medium without serum overnight, HUVEC cells were washed with 1×PBS twice, followed with incubation in M199 medium. HUVEC cells were then treated with 1 nM of GA and/or 4 nM of VEGF for 5 minutes, then subjected to immunoprecipitation using anti-VEGFR2 antibody. Anti-phosphotyrosine antibody was used for the detection of phosphorylation of the tyrosine residue of VEGFR2. […] Reaction cocktail containing 100 ng of active VEGFR2 was incubated with different concentrations of GA for 5 minutes at room temperature. Substrate peptide cocktail was added to the pre-incubated reaction cocktail/GA compound. After incubation at room temperature for 30 minutes, stop buffer was added to halt the reaction. 25 μl of each reaction was then transferred with 75 μl dH2O per well into a 96-well streptavidin coated plate and incubated at room temperature for 60 minutes. […] The stop solution was added and the plate was detected at 405 nm. […]
(§2) HUVEC cells pretreated with or without 4 nM VEGF for 5 min were treated with or without different concentrations of GA for another 5 minutes. […] Anti-cleaved caspase 3 antibody (Santa Cruz Biotech) was used for detecting cleaved caspase 3 and polyADP ribose polymerase (PARP) cleavage was detected by an anti-PARP p85 fragment (Promega) in apoptosis assays.

The next assay deals with mice aortic rings. In words: Aortic ring assay (micro-vessel growth). The format is cell-based. The note with it: 10 nM GA, 4 days incubation. The method, then: Forty-eight-well plates were covered with 100 μl of Matrigel at 4° C. and incubated at 37° C., 5% CO2 for 30 minutes. Aortas isolated from mice were cleaned of periadventitial fat and connective tissues, and cut into about 1-1.5 mm-long rings. After being rinsed five times with endothelial cell-based medium, the aortas were placed on the Matrigel covered wells and covered with another 100 μl of Matrigel. Artery rings were cultured in 1.5 ml of ECGM medium without serum for 24 hours. The medium was then replaced with 1.5 ml of ECGM medium supplemented with or without GA. The medium was changed every two days with the exact composition as described above. After 4 days incubation, the micro-vessel growth was quantified in the mouse aortic ring assay by taking photographs with an Olympus IX 70 inverted microscope using a 4× objective lens. After images were acquired, the outgrowth area was delineated and measured with Pro Plus software (Media Cybernetics).

The test system of the next assay is FAK. In words: FAK phosphorylation in HUVEC cells (immunoprecipitation, Western blotting). Format: cell-based, human. The settings on record: HUVEC cells with or without VEGF, GA 1-40 nM, 5 minutes. As for the experimental part:
as §1, §2

A further assay has as its system c-Src. Nature of the assay: c-Src phosphorylation in HUVEC cells (immunoprecipitation, Western blotting). The format is cell-based, human. The settings on record: HUVEC cells with or without VEGF, GA 1-40 nM, 5 minutes. As for the experimental part:
as §1, §2

The test system of assay [3] is HUVEC cells. Nature of the assay: Flow cytometry / FACS apoptosis (Sub G1, propidium iodide). The note with it: 24 hours. Format: cell-based, human. As for the experimental part: (§3) About 2×10^6 HUVEC and PC3 cells were treated with different concentrations of GA at 37° C. in a 5% CO2 incubator for 24 hours. The cells were collected and flow cytometry was performed using a FACS Vantage SE DiVa flow cytometer (Becton Dickinson) with propidium iodide staining. The cell population percentages at Sub G1 were defined as apoptotic cells.
In general terms: A flow cytometer gives signals particle by particle.

The test system of a further assay is PC3 cells. Described as above. Format: cell-based, human. The note with it: 24 hours. The method, then: as §3

For the molecule `CC(C)=CCC[C@]1(C)C=Cc2c(O)c3c(c(CC=C(C)C)c2O1)O[C@]12C(=C[C@@H]4C[C@H]1C(C)(C)O[C@@]2(C/C=C(/C)C(=O)O)C4=O)C3=O` [GA, gambogic acid], in the assay with HUVEC cells [1] (100 nM GA), the “Tube formation ability of HUVECs” value is on record as “completely inhibited the tube-forming ability; also recorded: completely inhibited the tube formation ability”. The IC50 in the assay on HUVEC cells [1] (12-16 hours, read-out: Concentration that inhibited tube formation of HUVEC cells by 50%) was ~50 nM; in the assay with HUVEC cells [1] (as printed in the legend of FIG. 3, read-out: Concentration that inhibited 50% tube formation of HUVEC cells) it was ~50 nM. The “VEGF induced corneal angiogenesis” value in the assay with mouse cornea was “significantly inhibits corneal angiogenesis; also recorded: dramatically inhibits”. For the same molecule, in the assay on HUVEC cells [2], the “Apoptosis by cleaved caspase 3 and cleaved PARP” value was “induces apoptosis; also recorded: strongly induced apoptosis”. Also, the “Phosphorylation and activation of AKT (pSer473)” value with AKT is “inhibited AKT phosphorylation and activation”. Further, the “New vessel growth from aortic rings” value with mice aortic rings is listed as “inhibited almost all new vessel growth”. Also, the “Phosphorylation and activation of FAK” value with FAK is “significantly inhibited the phosphorylation and activation”. Also, in the assay with c-Src, the “Phosphorylation and activation of c-Src” value is “significantly inhibited the phosphorylation and activation”. Moreover, the Apoptotic population in the assay with HUVEC cells [3] (GA 20 nM) is 11.6 ± 1.1 % of total; with HUVEC cells [3] (GA 40 nM), 14.4 ± 2.3 % of total; with HUVEC cells [3] (GA 80 nM) it was 40 % of total and 40 ± 3.6 % of total; with HUVEC cells [3] (GA 100 nM), 57.6 ± 4.7 % of total; in the assay on PC3 cells (GA 20 nM) it was 1.6 ± 0.3 % of total; with PC3 cells (GA 40 nM), 2.9 ± 0.4 % of total. In addition, the Apoptotic population in the assay on PC3 cells (GA 80 nM) is 4 % of total and 4.3 ± 0.5 % of total; in the assay with PC3 cells (GA 100 nM), 13.8 ± 3.6 % of total.

The values are drawn from patent US20090259054A1, “Methods and Compositions for the Treatment of Angiogenesis and Macular Degeneration” (The Texas A&M University System, priority 2008, published 2009).
